Data taken from US20200216906A1, “METHODS AND COMPOSITIONS RELATING TO THE DIAGNOSIS AND TREATMENT OF CANCER” (PRESIDENT AND FELLOWS OF HARVARD COLLEGE, priority 2015, published 2020).

Tests used:
[1] = test system: Panc02.13 cells expressing YAPS6A; test: Gemcitabine and dFdU efflux by LC-MS/MS, Panc02.13 YAPS6A vs GFP; type: in vitro ADME, human; conditions: less efflux in YAPS6A after gemcitabine treatment, p<0.05
Description: It was considered whether the Hippo pathway might affect the efflux of gemcitabine and/or its metabolites. To assess directly gemcitabine efflux in conditioned media of pancreatic cancer cells both radiolabeled gemcitabine and LC-MS/MS-based methods were used. Panc02.13 cells grown in highly crowded conditions (Hippo-ON) pumped out 2-3-fold more radiolabeled gemcitabine (counts per μg protein) compared with cells grown in less crowded conditions (Hippo-OFF) (FIG. 22A). Another pathway of inactivation and export is the enzymatic conversion of gemcitabine to a uracil derivative (2′,2′-difluorodeoxyuridine, dFdU) by deamination catalyzed by cytidine deaminase (CDA)(Veltkamp et al., 2008). The efflux of gemcitabine and its deaminated metabolite, dFdU was measured by LC-MS/MS (24) in Panc02.13 cells expressing YAPS6A or vector control after gemcitabine treatment (FIG. 22B).

[2] = test system: H2052 (LATS2) cells; test: Gemcitabine and dFdU efflux by LC-MS/MS, H2052 cells; type: in vitro ADME; conditions: higher in H2052 (LATS2)
Description: Are defects in the Hippo pathway the major cause of gemcitabine sensitivity? […] Restoring the levels of LATS2 in H2052 cells caused an increase in the mRNA and proteins levels of ABCG2 and CDA (FIGS. 23C, 36A-36M).

[3] = test system: Miapaca2-YAPS6A xenografts; test: Mouse xenograft, Miapaca2-YAPS6A; type: in vivo; conditions: LC-MS/MS, p<0.01
Method: To assess the gemcitabine response to Hippo pathway inactivation in tumors a mouse xenograft model of pancreatic carcinoma cells and patient-derived xenograft (PDX) models from a variety of solid tumors including human cancers from non-small cell lung, esophagus, breast, mesothelium, ovary, colon, head and neck, sarcoma, and cholangiocarcinoma were used (FIG. 30). In mouse xenograft studies, two human pancreatic cancer cell lines (Miapac2 and Panc02.13) expressing GFP or YAPS6A were injected into athymic mice. Both parental or GFP expressing cells grew rapidly, producing palpable tumors in 5-10 days. When the tumors were ˜200 mm^3 (as measured using a caliper), mice were randomized into treatment and control groups. The […] received i.p. saline injections on alternate days for two weeks, and the latter received gemcitabine (20 mg/kg in Miapaca2-YAPS6A and 50 mg/Kg in Panc02.13-YAPS6A cohorts).
Tumorigenicity in Nude Mice. All in vivo experiments were performed using 6-week-old to 8-week-old athymic nude mice. Mice were maintained in laminar flow rooms with constant temperature and humidity. Miapaca2 or Panc02.13 cells were inoculated subcutaneously (s.c.) into each flank of the mice. Cells (2×10^6 in suspension) were injected on day 0, and tumor growth was followed every 2 to 3 days by tumor diameter measurements using vernier calipers. Tumor volumes (V) were calculated using the formula: V=AB2/2 (A, axial diameter; B, rotational diameter). When the outgrowths were • 200 mm^3, mice were divided at random into two groups (control and treated, n=3-8). The treated group received gemcitabine injection or saline control on alternate days (MWF) for 2 weeks.
Intra-tumor gemcitabine measurements.

[4] = test system: Panc02.13 cells with NF2 depletion; test: High-density spheroid assay, NF2-depleted Panc02.13 cells; type: cell-based, human
Description: In cells at low cell density, where YAP is localized to the nucleus, presumably YAP dependent transcription is turned on. At high density, YAP is in the cytoplasm, transcription is blocked and resistance to gemcitabine is high. Given these correlations it was asked whether inactivation of Hippo pathway could restore gemcitabine sensitivity in crowded conditions. Expression of a non-phosphorylatable form of YAP (YAPS6A) in Panc02.13 pancreatic cancer cells causes constitutive nuclear localization of exogenous YAP even at high crowding (data not shown).

[5] = test system: CDA; test: CDA expression after verteporfin treatment; type: cell-based, human; conditions: verteporfin treatment of Panc02.13 cells, p<0.05
Method: Cells were serum-starved for 24 h and total cellular RNA was isolated using an RNeasy™ Mini Kit (QIAGEN, Santa Clara, Calif.). mRNA levels for the EMT-related genes were determined using the RT^2 Profiler™ qPCR array (SA Biosciences Corporation, Frederick, Md.). Briefly, 1 μg of total RNA was reverse transcribed into first strand cDNA using an RT^2 First Strand™ Kit (SA Biosciences). The resulting cDNA was subjected to qPCR using human gene-specific primers for 75 different genes, and five housekeeping genes (B2M, HPRT1, RPL13A, GAPDH, and ACTB). The qPCR reaction was performed with an initial denaturation step of 10 min at 95° C., followed by 15 s at 95° C. and 60 s at 60° C. for 40 cycles using an Mx3000P™ QPCR system (Stratagene, La Jolla, Calif.).
The activity of the Hippo pathway not only affected the efflux of gemcitabine but also its major metabolite, dFdU (FIG. 22B).
RNA extraction and quantitative real-time PCR. Cells were serum-starved for 24 h and total cellular RNA was isolated using an RNeasy Mini Kit (QIAGEN, Santa Clara, Calif.). mRNA levels for the EMT-related genes were determined using the RT2 Profiler™ qPCR array (SA Biosciences Corporation, Frederick, Md.). Briefly, 1 μg of total RNA was reverse transcribed into first strand cDNA using an RT2 First Strand Kit (SA Biosciences). […]

[6] = test system: Panc02.13 cells; test: 3D spheroid growth assay, Panc02.13 (GFP/parental) cells; conditions: read-out: EC50 in 3D-spheroid assays; 3D-spheroid (Hippo-on)
Method: Cancer cell lines were seeded at a 5×10^3 cells per well in a 96-well ultra-low adherence plates (Costar) and briefly spun down at 1000 rpm for 5 minutes. After 2 days, cells were treated with small molecule inhibitors at varying concentrations. Growth of spheroids was monitored using live cell imaging every 2-3 hours for 4-7 days in the Incucyte FLR™ system (Essen) or as end point assay using CellTiter-Glo™ luminescent cell viability assay (Promega).
A dose response curve for each inhibitor is calculated based on control (no inhibitor/DMSO) treated wells.
Cancer cell lines were seeded at a 5×10^3 cells per well in a 96-well ultra-low adherence plates (Costar) and briefly spun down at 1000 rpm for 5 minutes. After 2 days, cells were treated with small molecule inhibitors at varying concentrations. Growth of spheroids was monitored using live cell imaging every 2-3 hours for 4-7 days in the Incucyte ZOOM™ system (Essen) or as end point assay using CellTiter-Glo™ luminescent cell viability assay (Promega).

[7] = test system: pancreatic cancer cell lines; test: Kinetic cell growth assay, panel of pancreatic cancer cell lines; type: cell-based, human; conditions: low density growth conditions (Hippo-Off); read-out: EC50 on pancreatic cancer cell growth
Method: (§1) The effect of gemcitabine on pancreatic cancer cell growth was studied using a kinetic cell growth assay. Pancreatic cancer cells were plated on 96-well plates (Essen ImageLock, Essen Instruments, MI, US) at varying densities (2-4×10^3 for low density or 15-20×10^3 for high density experiments). Small molecule inhibitors at different doses were added 24 hours after plating and cell confluence was monitored with Incucyte Live-Cell Imaging System and software (Essen Instruments). Confluence was observed every hour for 48-144h or until the control (DMSO only) samples reached 100% confluence.
FIG. 20A illustrates the kinetic cell growth assay to determine the effect of gemcitabine in a panel of pancreatic cancer cell lines. Cells are plated at low crowding conditions (10-25% confluence) and 24 hours later exposed to gemcitabine in a dose-dependent manner. They are imaged every 1-3 hours until control (vehicle) treated cells reach 100% confluence. This assay is not confounded by the fact that the time required for each cell line to reach 100% confluence may be very different (as the cell lines have different doubling times). A dose response effect of gemcitabine on cell growth for 16 pancreatic cancer cell lines is shown in FIGS. 20B, 3, 31A-31C and 28, where the range of previous studies is also shown. […] Similar responses to gemcitabine were found in liver cancer cell lines (Huh7 and FOCUS) and untransformed (HEK293) cell lines (FIGS. 3, 31A-31C).
as §1, with “Kinetic Cell growth assay. The” for “The”, “(2-4X103” for “(2-4×10^3”, “15-20X103” for “15-20×10^3”, “Incucyte™” for “Incucyte”

Molecule | dFdU effluxed, YAPS6A vs GFP expressing cells [1] [fold] | Effluxed dFdU in media, H2052 (LATS2) vs parental H2052 (LATS2−/−) [2] | Reduction in intra-tumor accumulation of dFdU vs parental control xenografts [3] [fold] | Sensitivity after NF2 depletion [4] | Increase in CDA levels [5] [fold] | EC50 [6] [µM] | EC50 [7] [nM]
O=c1ccn([C@@H]2O[C@H](CO)[C@@H](O)C2(F)F)c(=O)[nH]1 [dFdU, 2′,2′-difluorodeoxyuridine] | 5 | 2-3 fold | > 4 | – | – | – | –
verteporfin | – | – | – | restored sensitivity | 3 | > 5 | < 500
